Source: US20240425529A1, “BORIC ACID DERIVATIVE” (SHOUYAO HOLDINGS (BEIJING) CO., LTD., priority 2021, published 2024)

Columns and labels:
LMP7 = molecular target: T1, LMP7 (Homo sapiens, UniProt P28062); assay: Enzymatic inhibitory activity on LMP7 (MOLT-4 cell lysate, Ac-ANW-AMC substrate); type: biochemical; conditions: 1 hour pre-incubation
T1 construct: using MOLT-4 cell lysate as the enzyme source of LMP7; endogenous in cells; host or cells: MOLT-4 (human acute lymphoblastic leukemia cells)
How it was run: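 Enzyme source was MOLT-4 cell lysate (20 ng/μl final) in 20 mM Tris pH 8.0, 0.5 mM EDTA, preincubated 1 h at 23 °C with compound at 9 final concentrations (0–2000 nM). Ac-ANW-AMC ([…]) was then added, 2 h at 23 °C in the dark. AMC fluorescence (ex 345/em 445 nm) gave the IC50.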

[1] = Animal pharmacokinetic study in rats, single gavage; type: in vivo; conditions: rat, po; male rats, single gavage 5 mg/kg, plasma
Method: Three healthy adult male rats from Beijing Vital River Experimental animal Technology Co. Ltd were used for animal pharmacokinetic experiments. The compounds were suspended in 20% sulfobutyl ether-β-cyclodextrin (W/W/V) at a concentration of 1 mg/mL at a dosing volume of 5 mL/kg by single gavage at a dose of 5 mg/kg. Animals were fasted overnight before the experiment, from 10 hours before the administration to 4 hours after the administration. Blood was collected at 0.25, 0.5, 1, 2, 4, 6, 8, and 24 hours after the administration. The animals were anesthetized with isoflurane. About 0.4 mL of whole blood was collected from the orbital venous plexus using a glass blood collection tube and placed in a heparin anticoagulant tube. The sample was centrifuged at 4200 rpm for 5 min at 4° C. The plasma was transferred to a centrifuge tube and stored at −80° C. for later analysis. The plasma sample analysis used the acetonitrile protein precipitation method to extract the compound to be tested and internal standard (Warfarin or Propranolol) from rat plasma, and the extraction solution was analyzed by LC/MS/MS. The plasma concentration-time data of individual animals measured were analyzed using anon-compartmental model using the WinNonlin (version 5.2.1; Pharsight company) software, and the following pharmacokinetic parameters were obtained: maximum (peak) plasma drug concentration Cmax; Time to max Tmax; the area under the curve AUC0-inf of blood drug concentration-time from half-life T½ and extrapolation to infinite time.

Row | IC50 (LMP7) [nM] | AUC(0-inf) [1] [ng·h/mL] | Cmax [1] [ng/mL] | Tmax [1] [h] | half-life [1] [h] | Compound
1 | 3.53 | 24200 | 1910 | 3.33 | 5.17 | O=C(Nc1nc2ccccc2s1)C(=O)N[C@@H](Cc1coc2ccccc12)B(O)O [Ex. 27, (R)-(2-(benzofuran-3-yl)-1-(2-oxo-2-((benzo[d]thiazol-2-yl)amino)acetamido)ethyl)boronic acid]
2 | 4.6 | 22200 | 1090 | 0.67 | 25.3 | Cc1cnc(NC(=O)C(=O)N[C@@H](Cc2coc3ccccc23)B(O)O)s1 [Ex. 32, (R)-(2-(benzofuran-3-yl)-1-(2-oxo-2-((5-methylthiazol-2-yl)amino)acetamido)ethyl)boronic acid]
3 | 1.51 | 25400 | 1430 | 0.92 | 16.4 | O=C(Nc1cc(Cl)ccn1)C(=O)N[C@@H](Cc1coc2ccccc12)B(O)O [Ex. 49, (R)-(2-(benzofuran-3-yl)-1-(2-oxo-2-((4-chloropyridin-2-yl)amino)acetamido)ethyl)boronic acid]
4 | 9.64 | 26500 | 3930 | 0.58 | 14.7 | O=C(Nc1ccccn1)C(=O)N[C@@H](Cc1coc2ccccc12)B(O)O [Ex. 12]

Row | Compound | IC50 (LMP7) [nM] | AUC(0-inf) [1] [ng·h/mL] | Cmax [1] [ng/mL] | Tmax [1] [h] | half-life [1] [h]
5 | O=C1COB([C@H](Cc2coc3ccccc23)NC(=O)C(=O)Nc2cnccn2)O1 [Ex. 73] | 1.23 |  |  |  | 
6 | CC1CC(C)(C)OB([C@H](Cc2coc3ccccc23)NC(=O)C(=O)Nc2cnccn2)O1 (stereo partly drawn) [Ex. 67] | 1.59 |  |  |  | 
7 | O=C(Nc1cnccn1)C(=O)N[C@@H](Cc1coc2ccccc12)B(O)O [Ex. 9, (R)-(2-(benzofuran-3-yl)-1-(2-oxo-2-(pyrazin-2-ylamino)acetamido)ethyl) boronic acid] | 9.02 | 38600 | 3880 | 2.67 | 5.58
